Several values for one entry are separate records, joined by “and”; a condition that tells them apart may be missing. Equal entries are not always repeated.

One experiment can be described thus: DPPH assay. Conditions: at 100 μM; 1 mL 0.2 mM DPPH, 30 minutes. The format is biochemical. As for the experimental part: L-Ascorbic acid (Sigma Aldrich) was used as a positive control. […] MRS broth not treated with a strain was used as a negative control. After the reaction, OD515 was measured using a spectrophotometer and DPPH radical scavenging activity was calculated according to the following equation. DPPH radical scavenging activity (%)=[(Absorbance of control to which sample was not added)−(Absorbance of group to which sample was added)]/(Absorbance of control to which sample was not added) […] The experiment was conducted 3 times and the average value was obtained.
In general terms: Loss of DPPH colour is used to gauge radical scavenging.

Another experiment concerns B16 melanoma cells. The experiment can be described thus: B16 melanoma cell melanin assay (melanogenesis inhibiting ability). The format is cell-based. Conditions: 100 ppm sample, 200 nM a-MSH; for extracellular OD475 / extracellular melanin / extracellular melanin, % of control / melanin/protein: replicates 1-3. As for the experimental part:
Skin-whitening effect was evaluated as described below. B16 melanoma cells were seeded onto a 12-well plate at a density of 1.5×10^5 cells per well. DMEM (Dulbeco's modified Eagle's medium) supplemented with 10% fetal bovine serum was used and the cells were cultured for 24 hours (10% CO2, 37° C.). The 12-well plate onto which the B16 melanoma cells were seeded was treated with 200 nM melanocyte-stimulating hormone (MSH) and then the 12-well plate was treated with each sample (25, 50, 100 and 200 ppm). The test groups were: a group treated with sonicated identified strain (LBS sonication), a group treated with heat-killed identified strain (LBS heat), and a group treated with cultural filtrate of the identified strain (culture). […] The cells treated with nothing were used as a negative control group and those treated only with MSH was used as a vehicle group. After the treatment, the cell culture (extracellular melanin) was transferred to a 96-well plate and absorbance was measured at 475 nm. […] The calculated melanin content was normalized to the total protein content for each group and the melanogenesis inhibiting ability was evaluated by comparing with the control groups. The experiment was repeated 3 times.

Consider `O=C1O[C@H]([C@@H](O)CO)C(O)=C1O` [L-ascorbic acid], for which the “DPPH radical scavenging activity” value in the experiment “DPPH assay” is given as “about 7%”.
As for `OC[C@H]1O[C@@H](Oc2ccc(O)cc2)[C@H](O)[C@@H](O)[C@@H]1O` [arbutin], in the experiment with B16 melanoma cells, the “extracellular melanin, % of control (average of 3)” value is recorded as 111.1 % of control; the “extracellular OD475” value is 0.281 and 0.252 and 0.274; the extracellular melanin was 138.50 ppm and 124.00 ppm and 135.00 ppm; the “extracellular melanin, % of control” value was 116.8 % of control and 106.1 % of control and 110.5 % of control. In the experiment with B16 melanoma cells, the melanin/protein is 214.2 µg/mg and 194.5 µg/mg and 202.6 µg/mg.
For the compound `O=c1cc(CO)occ1O` [kojic acid], in the experiment on B16 melanoma cells, the “extracellular melanin, % of control (average of 3)” value is 67.3 % of control; the “extracellular OD475” value turned out to be 0.163; the extracellular melanin was 68.00 ppm and 70.00 ppm and 79.50 ppm; the “extracellular melanin, % of control” value was 65.1 % of control and 65.3 % of control and 71.5 % of control. In addition, in the experiment with B16 melanoma cells, the melanin/protein is 119.4 µg/mg and 119.7 µg/mg and 131.2 µg/mg.
